“And” between values parts separate entries of the source, which are not always exact repeats. Equal values may be shown once.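 Protocol summary: plate cells (96-well), add compound at 5 concentrations, incubate 48 h, interpolate endpoints linearly. Here, GI50 denotes the concentration required for 50% inhibition of growth. TGI denotes the concentration required for complete inhibition of growth.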
Legend:
Test in all cases: NCI anticancer screen, dose series, 48 h
K-562 leukemia = tested on: K-562 leukemia
OVCAR-8 ovarian = tested on: OVCAR-8 ovarian
OVCAR-3 ovarian = tested on: OVCAR-3 ovarian
NCI-H226 lung = tested on: NCI-H226 lung
SK-MEL-28 melanoma = tested on: SK-MEL-28 melanoma
PC-3 prostate = tested on: PC-3 prostate
HCC-2998 colon = tested on: HCC-2998 colon
ACHN renal = tested on: ACHN renal
OVCAR-5 ovarian = tested on: OVCAR-5 ovarian
NCI/ADR-RES ovarian = tested on: NCI/ADR-RES ovarian

Row | SMILES | GI50 (K-562 leukemia) | TGI (K-562 leukemia) | GI50 (OVCAR-8 ovarian) | TGI (OVCAR-8 ovarian) | GI50 (OVCAR-3 ovarian) | TGI (OVCAR-3 ovarian) | GI50 (NCI-H226 lung) | TGI (NCI-H226 lung) | GI50 (SK-MEL-28 melanoma) | TGI (SK-MEL-28 melanoma) | GI50 (PC-3 prostate) | TGI (PC-3 prostate) | GI50 (HCC-2998 colon) | TGI (HCC-2998 colon) | GI50 (ACHN renal) | TGI (ACHN renal) | GI50 (OVCAR-5 ovarian) | TGI (OVCAR-5 ovarian) | GI50 (NCI/ADR-RES ovarian) | TGI (NCI/ADR-RES ovarian)
1 | Fc1cc2[nH]ncc2c2c3c(c(-c4cn[nH]c4C(F)(F)F)nc12)CCCC3 | 2.07 µM | > 100 µM | 2.04 µM | > 100 µM | 2.75 µM | > 100 µM | 2.64 µM | > 100 µM | 1.41 µM | 5.35 µM | 1.86 µM | > 100 µM | 1.64 µM | 4.99 µM | 0.947 µM | 7.58 µM | 2.49 µM | 7.43 µM | 4.95 µM | 43.4 µM
2 | CCSCC1CC(O)(c2ccccc2)CC(c2ccc(F)cc2)O1 (stereo unspecified) | 1.83 µM | 3.93 µM | 2.95 µM | 8.79 µM | 1.83 µM | 3.4 µM |  |  | 2.15 µM | 4.44 µM | 1.82 µM | 4.89 µM | 2.56 µM | 7.11 µM | 2.37 µM | 6.56 µM | 2.17 µM | 5.09 µM | 2.44 µM | 6.66 µM
3 | O=S(=O)(NCCCNc1nccc(-c2c(-c3ccc(O)cc3)nc3sccn23)n1)c1ccc(F)cc1 | 1.67 µM | > 100 µM | 1.57 µM | 13.3 µM | 2.66 µM | 12.1 µM | 2.15 µM | 10.1 µM | 0.0528 µM | 6.23 µM | 3.11 µM | 29 µM | 3.37 µM | 6.93 µM | 2.09 µM | > 100 µM | 5.58 µM | > 100 µM | 4.59 µM | > 100 µM
4 | COc1ccc(C2=N[C@@H](Cc3ccccc3)C(=O)Nc3ccsc32)cc1 | 3.75 µM | 27 µM | 6.31 µM | 57.6 µM | 3.56 µM | 9.88 µM | 11.2 µM | 42 µM | 9.66 µM | 24.5 µM | 3.78 µM | 25.2 µM | 12 µM | 25.8 µM | 6.27 µM | 39.1 µM | 11.5 µM | 36.4 µM | 3.84 µM | 33 µM
5 | Nc1nccc(-c2c(-c3ccc(F)cc3)ncn2C2CCNCC2)n1 | 5.92 µM and 2.92 µM | > 25 µM | 5.88 µM and 1.43 µM | > 25 µM | 6.78 µM and 4.93 µM | > 25 µM | 1.27 µM and 3.97 µM | > 21.2 µM and 20.1 µM | 10.2 µM and 8.41 µM | > 25 µM | 13.6 µM and 4.05 µM | > 25 µM | 9.58 µM and 3.89 µM | > 25 µM and 12.2 µM | 7.61 µM and 1.41 µM | > 25 µM | 9.62 µM and 5.81 µM | > 25 µM | > 25 µM and 5.1 µM | > 25 µM
6 | CC(C)(C)c1ccc(S(=O)(=O)Oc2ccc3c4c(c(=O)oc3c2)CCCCC4)cc1 |  |  | 21.8 µM | > 100 µM | 18.4 µM | > 100 µM | 9.94 µM | > 100 µM | 24.1 µM | > 100 µM | 2.22 µM | > 100 µM | > 100 µM | > 100 µM | 14.4 µM | 34.6 µM | 37 µM | > 100 µM | 13.9 µM | > 100 µM
